Experimental data: patent US11890279B2, “Quinolines that modulate SERCA and their use for treating disease” (Neurodon Corporation, priority 2020, dated 2024)

Assays:
[1] = Brain barrier penetration in mice; assay type: in vivo; details: mouse, brain/plasma, 10 mg/kg IP, 1 hr after dosing, read-out: brain/plasma ratio
From the text: The brains of the mice were harvested 1 hr after dosing. The brain/plasma ratio was 2.6.

6-OHDA-lesioned rats = assay: Behavioral tests in the 6-OHDA-lesioned rat model of Parkinson's disease; assay type: in vivo; details: 10 mg/kg IP once daily
From the text: Behavioral tests in the 6-hydroxydopamine (6-OHDA)-lesioned rat model of Parkinson's disease. Male Wistar rats were trained for both the stepping and initiation time (IT) tests 6 days before treatment with 6-OHDA or NaCl (day −6). 5 days before treatment with 6-OHDA, animals from groups 1 to 3 were given vehicles [NaCl or a mixture of DMSO (10%)/tween 80 (10%)/water (80%)] once daily for 16 days. […] All the treatments were given via the IP route, once daily, Sunday excluded. Surgery was performed on DO under ketamine (50 mg/kg) and xylazine (10 mg/kg). Animals received a unilateral injection of 6-OHDA, 6 μl (sigma Aldrich) in the left substantia nigra pars compacta. During surgery, local analgesia was achieved using subcutaneous injections of lidocaine. At the end of surgery, animals were treated with buprenorphine (0.05 mg/kg, S.C.). […] For the IT test, only one of the two forelimbs was left free to move and the time that is necessary to initiate the movement toward the plane surface was recorded, using 180 sec as break-off point. […] In the stepping test, the rat was held by the experimenter and only one of the two forelimbs was left free to move above a plane surface. The other hand fixed the forelimb not to be monitored with one paw touching the table. The animal was then be moved slowly forward by the experimenter. The number of adjusting steps was counted for the right paw. […] In the cylinder test, animals were placed in a Plexiglas cylinder and, immediately, videotaped for 15 min. During this time, the numbers of contacts made on the cylinder wall with both the ipsilateral, the contralateral, and the two paws simultaneously (double contacts) were recorded and then expressed as a percentage of the total number of contacts.

[2] = biological target: human nerepinephrine (NET) transporter (Homo sapiens (Human), UniProt P23975); assay: Selectivity panel of 164 targets; details: 10 μM in duplicate; one of only 4 hits among 164 targets
From the text: (§1) The methods used here for each target were adapted from the scientific literature to maximize reliability and reproducibility.

[3] = test system: rabbit monoamine transporter; assay: Selectivity panel of 164 targets; details: 10 μM in duplicate; one of only 4 hits among 164 targets
From the text: as §1

human adenosine A2A = human adenosine A2A (Homo sapiens (Human), UniProt P29274); assay: Selectivity panel of 164 targets; details: 10 μM in duplicate; one of only 4 hits among 164 targets
From the text: as §1

liver of ob/ob mice = assay: Liver expression of gluconeogenesis and lipogenesis genes in ob/ob mice; assay type: in vivo, mouse
Procedure: The expression of key genes involved in gluconeogenesis and lipogenesis was measured. RNA was isolated from liver samples of the ob/ob mice and mRNA expression of the indicated genes was quantified by Real-time PCR using iTaq Fast SYBR Green Supermix with ROX (Bio-Rad) in a 7500 Real-Time PCR systems (Applied Biosystems) using mouse specific primers. Gene expression is normalized to 18s. RNA was isolated using Trizol (Invitrogen). cDNA was generated using High Capacity cDNA Reverse Transcription kit (Applied Biosystems). Real-time PCR was performed with iTaq Fast SYBR Green Supermix with ROX (Bio-Rad) in 7500 Real-Time PCR systems (Applied Biosystems) using mouse specific primers. Gene expression was normalized to 18s. Isolated liver tissue was homogenized in RIPA buffer containing protease inhibitors and phosphatase inhibitors (Roche). Protein samples were matched for their protein concentrations and 30 micrograms of each sample were applied to SDS-PASE and transferred onto nitrocellulose membrane. Membranes were then incubated with the corresponding phosphor or total primary antibodies specific for the desired proteins followed by incubation with appropriate secondary antibodies conjugated to horseradish peroxidase (Pierce) and signal intensities were visualized by Chemiluminescence (Pierce). Films from at least four independent experiments were scanned and densities of the immunoreactive bands were evaluated using NIH Image software. GAPDH (Santa Cruz Biotechnology) was used as a loading control.

CSM14.1 cells = assay: ER stress cell survival assay (thapsigargin); assay type: cell-based; details: compound 2 μM; about 15 μM thapsigargin; CSM14.1 cells;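 note: survival read as CellTiter-Glo luminescence after overnight incubation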

Chain of human adenosine A2A (P29274 whole entry): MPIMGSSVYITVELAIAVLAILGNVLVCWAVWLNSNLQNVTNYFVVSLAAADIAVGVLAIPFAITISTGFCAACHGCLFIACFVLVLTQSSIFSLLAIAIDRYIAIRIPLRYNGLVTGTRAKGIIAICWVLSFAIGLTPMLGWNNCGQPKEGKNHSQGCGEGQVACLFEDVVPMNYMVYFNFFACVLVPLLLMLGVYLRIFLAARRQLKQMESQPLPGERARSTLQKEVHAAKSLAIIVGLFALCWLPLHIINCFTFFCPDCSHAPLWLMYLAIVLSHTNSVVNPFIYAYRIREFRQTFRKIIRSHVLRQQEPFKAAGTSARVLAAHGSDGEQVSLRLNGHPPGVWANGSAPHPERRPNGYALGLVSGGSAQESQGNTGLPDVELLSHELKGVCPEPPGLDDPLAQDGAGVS

| SMILES | Kp at 1 h [1] | initiation time (IT test) (6-OHDA-lesioned rats) | number of adjusting steps (stepping test) (6-OHDA-lesioned rats) | number of contacts (cylinder test) (6-OHDA-lesioned rats) | response against human NET transporter [2] | response against rabbit monoamine transporter [3] | response against human adenosine A2A (human adenosine A2A) | expression of PPARα and PGC1α (liver of ob/ob mice) | mRNA expression of G6PAse and PEPCK (liver of ob/ob mice) | mRNA expression of lipogenic genes (SCD1, DGAT2, FASn, SREBP1c) (liver of ob/ob mice) | Cell Survival (CSM14.1 cells) |
| --- | --- | --- | --- | --- | --- | --- | --- | --- | --- | --- | --- |
| Cc1ccc2cccc(NC(=O)c3ccc(OC(C)C)cc3)c2n1 [Compound A12, 4-Isopropoxy-N-(2-methylquinolin-8-yl)benzamide] | 2.6 | reduced | increased | increased | significant responses | significant responses | significant responses | increased | significantly reduced | significantly reduced | – |
| Cc1ccc2cccc(NC(=O)c3ccc(N(C)C)cc3)c2n1 [Compound C18, 4-N,N-Dimethylamino-N-(2-methylquinolin-8-yl)benzamide] | – | – | – | – | – | – | – | – | – | – | B (B represents a value between 10% and 50%) |
